Experiment: Human HepG2 cell viability assay in 384 well format
Format: toxicity, cell-based
Parameters: dose 125 nL, time 70.5 hour; cytotoxicity at 70.5 h: concentration not given beside the values
Conditions: HepG2 cells, read-out: Inhibition

| SMILES | cytotoxicity at 70.5 h [%] |
| --- | --- |
| Cc1cccc(N2CC3(CCN(c4nncs4)C3)CC2=O)c1 (stereo not drawn) | -4.91 |
| CO[C@H]1CN(C(=O)c2ccc[nH]2)[C@@H]2COC[C@H]12 | -2.94 |
| O=C(NCC1CCN(C(=O)c2ccoc2)CC1)c1ccccc1Br | -0.695 |
| O=S(=O)(c1ccccc1)N1CCN(CCn2ccnc2)CC1 | 1.34 |
| O=S(=O)(c1cccnc1)N1CCN(CCn2ccnc2)CC1 | -0.387 |
| COc1ccccc1NC(=O)NCC(O)(c1ccccc1)C1CC1 (stereo not drawn) | 20.2 |
| Cc1ccc(NC(=O)Nc2cnc(N3CCN(C)CC3)nc2)c(Cl)c1 | 3.18 |
| NC(=O)c1nnn(-c2ccc(Br)cc2)n1 | 33.2 |
| Cn1c(C(F)(F)F)nn(CCNC(=O)CSCc2ccccc2)c1=O | 0.995 |
| O=C1CCSCC(C(=O)N2CCOCC2)N1 (stereo not drawn) | 0.753 |
| CCOC(=O)CCC(=O)N1CCC(Oc2ccc(C(F)(F)F)cn2)CC1 | -4.1 |
| CC(=O)N1CCC(Oc2ccc(C#N)cn2)CC1 | -3.09 |
| CN(C)S(=O)(=O)N1CCC(Oc2ccc(C#N)cn2)CC1 | -1.45 |
| COC(=O)c1sccc1S(=O)(=O)N1CCC(Oc2cccnn2)CC1 | -3.46 |
| COc1ncc(NC(=O)Nc2cc(C)ccc2OC)cn1 | 39.1 |
| CN(C)CC1CSCCCN1C(=O)Nc1ccc(C(C)(C)C)cc1 (stereo not drawn) | 5.94 |
| Cc1cnc2n(c1=O)CC(C(=O)Nc1ccccc1Cl)CS2 (stereo not drawn) | -5 |
| CCc1c(C)nc2n(c1=O)CC(C(=O)Nc1nc3c(s1)CCCC3)CS2 (stereo not drawn) | 12.5 |
| CCc1c(C)nc2n(c1=O)CC(C(=O)Nc1ccccc1F)CS2 (stereo not drawn) | 20.5 |
| COCCN(Cc1ccoc1)C(=O)c1cccnc1SC | -0.295 |
| Cn1cc(C(=O)Nc2ccc3c(c2)CN(C(=O)c2ccco2)CC3)nn1 | -4.02 |
| O=C(NCCn1ccc(-c2ccncc2)n1)c1ccncc1 | -2.74 |
| O=C(NCCn1ccc(-c2ccccn2)n1)C1CC1 | -4.52 |

| SMILES | cytotoxicity at 70.5 h [%] |
| --- | --- |
| Cn1nc(CNC(=O)c2ccc(Cl)cc2)c2c1CCOC2 | 3.98 |
| Cn1nc(CNC(=O)NCc2ccc(Cl)cc2)c2c1CCOC2 | -0.247 |
| Cn1nc(CNC(=O)C2COc3ccccc3O2)cc1C1CC1 (stereo not drawn) | 6.17 |
| Cn1cnnc1S(=O)(=O)C1CCN(S(=O)(=O)c2ccc(F)c(Cl)c2)CC1 | -5.73 |
| CNC(=O)CS(=O)(=O)C1CCN(S(=O)(=O)c2c(F)cccc2F)CC1 | -7.9 |
| O=C1CC(c2cccc(O)c2)c2sc(C(=O)O)c(-c3ccccc3)c2N1 (stereo not drawn) | 26.4 |
| CC(C)n1[nH]c(=O)c2c1NC(=O)CC2c1ccc2ncccc2c1 (stereo not drawn) | 5.19 |
| O=C(NCCC1=CCCCC1)C1CCN(c2ccc3nncn3n2)CC1 | 3.11 |
| CC(C)n1[nH]c(=O)c2c1NC(=O)CC2c1cccc(OC(F)F)c1 (stereo not drawn) | 6.29 |
| CC(C)(C)n1ncc2c1NC(=O)CC2c1ccsc1 (stereo not drawn) | -5.9 |
| CS(=O)(=O)N1CCN(C(=O)Cn2ccc3c(Cl)cccc32)CC1 | 8.68 |
| COC(=O)Cn1c(=O)nc2n1C(=O)N(c1ccc(Cl)cc1)C2 | 8.74 |
| COC(=O)Cn1c(=O)nc2n1C(=O)N(c1ccccc1)C2 | -8.59 |
| CC(C)(C)n1ncc2c1NC(=O)CC2c1ccc(OCC(N)=O)cc1 (stereo not drawn) | -10.7 |
| CC(C)(C)n1ncc2c1NC(=O)CC2c1ccccc1 (stereo not drawn) | -7.73 |
| O=C1CC(c2ccco2)c2sc(C(=O)O)c(-c3ccccc3)c2N1 (stereo not drawn) | -13.5 |
| CCOc1ccc(CNCCCn2ccnc2)cc1Br | 6.06 |
| O=C(O)c1nnn(Cc2cccc(C(F)(F)F)c2)c1-c1cccnc1 | -30.6 |
| O=C(Cn1cc(C(=O)O)ccc1=O)Nc1ccc(Cl)cc1F | -38 |
| COc1ccc(OC)c(C2C3=C(COC3=O)Nc3[nH]nc(C)c32)c1 (stereo not drawn) | 32 |
| O=C1N(c2ccc(Br)cc2)Cc2nc(=O)[nH]n21 | -16.4 |
| O=C(O)c1cc2c(nc1O)CC(c1cccs1)CC2=O (stereo not drawn) | -3.98 |
| O=S(=O)(NC1=NCN(CCc2cccs2)CN1)c1ccccc1 | -19.9 |

| SMILES | cytotoxicity at 70.5 h [%] |
| --- | --- |
| O=C1CC(c2ccc(C(=O)O)cc2)c2ncn(-c3cccc(F)c3)c2N1 (stereo not drawn) | -24.3 |
| O=C1CC(c2ccc(C(=O)O)cc2)c2ncn(-c3ccccc3)c2N1 (stereo not drawn) | -6.45 |
| COc1cc(CCC(C)O)c(OC)c2c1OCO2 (stereo not drawn) | -4.78 |
| Cc1c(C)n(Cc2ccccn2)c2nc3c(c(N)c12)CCCC3 | -14.4 |
| CCCNC(=O)c1cc2c(nc1O)CCC(C)C2 (stereo not drawn) | 22.8 |
| O=c1ccc(-c2cccs2)nn1CN1CCCCCC1 | -24.8 |
| CC(=O)Nc1ccc(-n2ccc3nc(N4CCCC4)ncc3c2=O)cc1 | 1.42 |
| Cc1ccc(C)c(-n2ccc3nc(N4CCCC4)ncc3c2=O)c1 | -7.78 |
| Cc1ccc(NS(=O)(=O)CC2=NC(=O)n3cccc3C2=O)cc1 | -36.1 |
| O=c1[nH]c2c(c(=O)n1C1CCCCC1)CCC2Nc1ccccc1Cl (stereo not drawn) | 21.6 |
| CCc1ccc(NS(=O)(=O)CC2=NC(=O)n3cccc3C2=O)cc1 | -5.39 |
| COCCN1C(=O)CC(N2CCN(c3ccc(F)cc3)CC2)C1=O (stereo not drawn) | 13.6 |
| CC(C)CCNC(=O)c1sccc1N(C)S(=O)(=O)c1ccccc1 | 33.2 |
| CCCNC(=O)c1sccc1N(C)S(=O)(=O)c1ccc(Cl)cc1 | 20.9 |
| COc1cccc(N2CCN(CC(O)c3ccc(C)cc3)CC2)c1 (stereo not drawn) | 3.16 |
| O=C(O)c1nnn(-c2ccc(F)c(F)c2)c1-c1ccncc1 | -8.76 |
| CCc1ccccc1-n1nnc(C(=O)O)c1-c1ccccn1 | -8.12 |
| NC(=O)C1CCN(c2nc3nccc(-c4ccccn4)c3c(=O)[nH]2)CC1 | -3.55 |
| CCN(c1ccc(C(=O)NCCCN2CCOCC2)cc1)S(=O)(=O)CC | 17.8 |
| CCS(=O)(=O)Nc1ccc(C(=O)NCCCN2CCCC2)cc1 | -4.61 |
| COc1cccc(C2CC(=O)Nc3nc(N4CCOCC4)sc32)c1OC (stereo not drawn) | -8.01 |
| CCCNC(=O)c1c(-n2cnnn2)sc2c1CCC2 | -10.4 |
| O=C(Nc1ccccc1)c1nn(C2CCS(=O)(=O)C2)c2c1CCCC2 (stereo not drawn) | -11.3 |

| SMILES | cytotoxicity at 70.5 h [%] |
| --- | --- |
| O=c1nc(CNc2ccccc2)[nH]n1Cc1ccccc1 | -13.1 |
| CC1CCN(c2nc(O)cc(C3CC(=O)N(C4CCCCC4)C3)n2)CC1 (stereo not drawn) | -8.25 |
| Nc1cc(-c2c[nH]nc2C2CCCCN2C(=O)C2CCCC2)ccn1 (stereo not drawn) | -7.49 |
| CN(C)S(=O)(=O)c1ccc(CNC(=O)C2CC(=O)N(C(C)(C)C)C2)cc1 (stereo not drawn) | -1.42 |
| Cc1nc(NC2CCOCC2)cc(C2CCN2S(C)(=O)=O)n1 (stereo not drawn) | -6.12 |
| Cc1cc(C)c2nc(C)c(C(=O)N3CCC(CCN(C)C)CC3)cc2c1 | -1.81 |
| Cc1ccnc(C2CN(Cc3cnn(-c4ccccc4C(=O)O)c3)C2)n1 | -6.57 |
| CN(C)c1nccnc1C1CCN(c2cnccn2)CC1 | -3.32 |
| Cc1cc(C(F)(F)F)nc(C2(C)CCCN2CC(N)=O)n1 (stereo not drawn) | 11.5 |
| CN(C)c1nccnc1C1CCCN(c2cnccn2)C1 (stereo not drawn) | -3.09 |
| CN1CCC(c2nnc3n2CCN(S(=O)(=O)c2ccccc2)C3)CC1 | -5.15 |
| CCOCCN1CCC(c2cncc(C)n2)CC1 | -1.63 |
| O=C(O)c1ccc(CN2CCCC(Cc3ccn[nH]3)C2)cc1 (stereo not drawn) | -4.91 |
| CC(C)S(=O)(=O)N1C[C@@H](O)[C@H](N(C)Cc2ccc(F)cc2)C1 | 0.65 |
| CCn1cc(C(=O)N2C[C@H]3C[C@H](Oc4ccccc4)C[C@H]3C2)cn1 | -0.374 |
| O=C(N[C@@H]1CN(Cc2c[nH]nc2-c2ccccc2)C[C@H]1O)c1cc[nH]n1 | -9.21 |
| CCc1cccc2cc(CN)c(=O)[nH]c12 | -10 |
| COCCNc1ncc(-c2onc(C)c2C)c(-c2ccco2)n1 | -5.67 |
| Cc1noc(-c2cnc(NC(C)C)nc2-c2ccco2)c1C | -13.3 |
| CS(=O)(=O)N1CCC(n2nnn(-c3ccccc3)c2=O)CC1 | -1.71 |
| Oc1nc(C2CC2)nc2c1nnn2C1CCN(Cc2ccoc2)CC1 | -6.55 |
| COCCN1CCCC(c2ccnc3c(C(N)=O)cnn23)C1 (stereo not drawn) | 3.17 |
| COCC(=O)N(C)Cc1nc(N(C)C)ncc1-c1ccncc1 | -11.3 |

| SMILES | cytotoxicity at 70.5 h [%] |
| --- | --- |
| O=C(C1CC1)N1C[C@H]2CCCN(S(=O)(=O)c3ccc4c(c3)CCC4)[C@H]2C1 | 3.41 |
| CN(C)c1ncc(-c2ccncc2)c(CCNC(=O)C2CC2)n1 | -5.57 |
| CCc1ccccc1NC(=O)NCc1nnc(SC)n1C | -5.85 |
| COc1ccccc1NC(=O)NCc1nnc(SC)n1C | -5.92 |
| CSc1nnc(CNC(=O)Nc2ccccc2Br)n1C | -3.94 |
| Cc1cnc(-c2nc(C3CCN(Cc4ccccc4C)CC3)no2)cn1 | -8.63 |
| Cn1cc(C2=NOC(C(=O)NC3(c4cccc(F)c4)CCCC3)C2)cn1 (stereo not drawn) | -4.3 |
| CCn1cc(S(=O)(=O)NCC(c2ccccc2)N2CCOCC2)c(C)n1 (stereo not drawn) | 18.1 |
| O=C(Nc1ccc2c(c1)OCCO2)c1ccc(=O)[nH]n1 | 15.5 |
| COCCC(=O)N1CCCC([C@@H]2C[C@H](C(F)F)n3ncnc3N2)C1 (stereo partly drawn) | -4.06 |
| CC(=O)N1CCCC1c1ccc(Br)cn1 (stereo not drawn) | 1.79 |
| Cn1ncc2ccc(C3CCCN(C(=O)Cc4cccs4)C3)nc21 (stereo not drawn) | 13.1 |
| Cn1ccc(C(=O)NCC2(O)CCN(c3cnccn3)C2)n1 (stereo not drawn) | -1.53 |
| CC(CNCc1ccc(Cl)c(Cl)c1)Oc1ccccn1 (stereo not drawn) | -1.69 |
| c1cc(OCc2ccc3c(c2)OCO3)ccc1CNC1CC1 | 48 |
| CC1CCN(CC(=O)NC2CCN(C(C)c3ccccc3)CC2)CC1 (stereo not drawn) | -12.3 |
| CN(C)[C@@H]1CN(Cc2ccccn2)C[C@H]1c1cn(C)c2ccccc12 | 12 |
| CN(C)[C@@H]1CN(Cc2ccccc2O)C[C@H]1c1cn(C)c2ccccc12 | 44.4 |
| CNCc1ccc([C@@H]2CN(C(C)=O)C[C@H]2C(=O)N(C)C)cc1 | -1.57 |
| O=C(C1CC1)N1CC[C@@H]2[C@H](CC1)N(Cc1cccnc1)CCS2(=O)=O | -2.85 |
| CCc1ncc(CN(CCc2ccccc2)Cc2cccs2)cn1 | -2.18 |
